Assay [1] has as its target T1, Sa-DHQ1 (Staphylococcus aureus, UniProt Q6GII7).
T1 construct: made in house
Put plainly: DHQ1 assay, kinetic parameters of the substrate. Format: biochemical. The following applies: PPB 50 mM, pH 7.2, 25°C. As for the experimental part:
(§1) The St-DHQ1 and Sa-DHQ1 enzyme were purified as described previously ([Moore et al., 1993]; [Nichols et al., 2004]). Concentrated solutions of St-DHQ1 (0.85 mg mL^−1, 30.74 µM) and Sa-DHQ1 (4 mg mL^−1, 148.13 µM) were stored in potassium phosphate buffer (PPB) (50 mM) and DTT (1 mM) at pH 6.6 and −80°C. When required for assays, aliquots of the enzyme stocks were diluted in water and buffer and stored on ice. DHQ1 was assayed in the forward direction by monitoring the increase in absorbance at 234 nm in the UV spectrum due to the absorbance for the enone-carboxylate chromophore of 3-dehydroshikimic acid (ε/M^−1 cm^−1 12 000). Standard assay conditions were PPB (50 mM, pH 7.2) at 25°C. Each assay was initiated by addition of the substrate. Solutions of 3-dehydroquinic acid 1) were calibrated by equilibration with DHQ1 and measurement of the change in the UV absorbance at 234 nm due to formation of the enone-carboxylate chromophore of 3-dehydroshikimic acid. […] The program GraFit 7.0.3. (Erithacus Software Ltd.). was used for data fitting.

In assay [2] the target is T2, St-DHQ1 (Salmonella typhi, UniProt P24670).
T2 construct: made in house
T2 sequence (P24670 1-252): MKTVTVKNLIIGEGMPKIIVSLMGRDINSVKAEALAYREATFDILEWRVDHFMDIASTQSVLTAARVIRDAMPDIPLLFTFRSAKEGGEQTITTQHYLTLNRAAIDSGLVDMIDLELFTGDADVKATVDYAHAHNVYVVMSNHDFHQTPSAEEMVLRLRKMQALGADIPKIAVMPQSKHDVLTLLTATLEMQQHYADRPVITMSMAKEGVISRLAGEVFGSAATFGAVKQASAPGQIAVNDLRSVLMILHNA
Put plainly: DHQ1 assay, kinetic parameters of the substrate. As to conditions: PPB 50 mM, pH 7.2, 25°C. Format: biochemical. As for the experimental part: as §1

The subject of assay [3] is Salmonella enterica DHQ1 enzyme. The following applies: crystal structure PDB ID 4GUI, 1.78 Å; ref Light et al., 2014; cited from earlier work.
Assay [4] addresses T2, St-DHQ1. Kind of assay: MALDI mass spectrometry of enzyme incubated with ligand. Type of assay: binding. As to conditions: for covalent modification of enzyme (MALDI): similar studies, incubation with ligand. The procedure:
The covalent modification of DHQ1 by compound 6 was also corroborated by mass spectrometry analysis of samples incubated with and without ligand.
St-DHQ1 (3.1 µM from a stock protein concentration of 0.85 mg mL^−1) and Sa-DHQ1 (3.0 µM from a stock protein concentration of 4 mg mL^−1) was incubated with various aqueous solutions of ligands 6–8 in PPB (0.5 mL, 50 mM) at pH 7.2, 25°C. The activity was determined progressively over a 24 h period under the standard assay conditions using aliquots from the incubation samples and the control. The activity was measured at a substrate concentration of 14 µM. The initial rate of each assay was measured. The samples were concentrated and washed (5 mM ammonium carbonate) for MALDI analysis by centrifugation at 4 °C using Amicon® centrifugal filters (Amicon Ultra-10). The samples were freeze-dried, diluted with 5 mM ammonium bicarbonate (5 µL) and analyzed by mass spectrometry using a MALDI TOF/TOF Mass Spectrometer (4,800 Analyzer, AbSciex). The ProteoMass™ MALDI calibration kit (Merck) was employed for calibration and sanipic acid as a matrix. Spectra were analyzed using the Data Explorer™ Software. Experiments were performed in triplicate.
Figure S3. MALDI spectra of St-DHQ1 after incubation with 3-hydroxylaminoquinic acid (6) (left) and the control (right). Incubation conditions were potassium phosphate buffer (50 mM, pH 7.0), 25 °C and (1:120) protein/ligand ratio, 24 h. After incubation and for MALDI analysis, the samples were successively washed with 5 mM […] by centrifugation at 4 °C using Amicon® centrifugal filters and concentrated. Sinapic acid was used as a matrix.
(1 picture or pasted object on this page, not shown here)

The target in assay [5] is T1, Sa-DHQ1. Kind of assay: Time-dependent irreversible inhibition assay (incubation of enzyme with ligand, residual activity at 234 nm). Type of assay: biochemical. The procedure:
(§2) The inhibitory capacity of compounds 6–8 against DHQ1 enzymes from S. aureus and S. typhi was evaluated. For irreversible inhibition assays, the enzyme was incubated with the ligand and its remaining activity was progressively determined using aliquots from the incubation samples and the control. For reversible competitive inhibition assays, the activity of the enzyme in the presence of increasing amount of ligand was evaluated. The enzyme activity was determined by monitoring the increase in absorbance at 234 nm in the UV spectrum due to formation of the enone-carboxylate chromophore of the enzyme product, 3-dehydroshikimic acid 2).
as §1
(§3) Incubation of Sa-DHQ1 and St-DHQ1 (2.96 µM from a stock protein concentration of […]) with various aqueous solutions of compounds 6–8 (30–4,000 µM) was carried out in PPB (0.5 mL, 50 mM) at pH 7.2 at 25°C. The activity was determined progressively in duplicate over a 3 h period under the standard assay conditions (see above) using aliquots from the incubation samples and the control. Semilogarithmic plots of residual activity as a function of time with a range of inhibitor concentrations [I] were performed to obtain the first-order rate constant, k obs, calculated from the slope, and is related with k inact KI constants by Equation 1 implemented in GraFit ([Plapp, 1982]): kobs=(kinact I) / (KI)+I) (1)

Assay [6] addresses T2, St-DHQ1. Described as above. Format: biochemical. The procedure:
as §2, §1, §3

The target in assay [7] is T1, Sa-DHQ1. Put plainly: Reversible competitive inhibition assay (initial rates, IC50). The following applies: substrate 14 µM, PPB 50 mM, pH 7.2, 25°C. Type of assay: biochemical. As for the experimental part: as §2, §1
(§4) IC50 values were determined in duplicate by measuring the initial rates at fixed enzyme and substrate concentrations (14 µM) in the absence and in the presence of various compounds concentrations, which was adjusted to the Equation 2 implemented in GraFit: y=Emax / 1+(IC50 / x)^n (2)
(§5) were y is the observed effect at inhibitor concentration x, Emax corresponds to the maximum effect, IC50 is the concentration at which a 50% […] is obtained, and n is the slope of the curve.

In assay [8] the target is T2, St-DHQ1. Described as above. Type of assay: biochemical. As to conditions: substrate 14 µM, PPB 50 mM, pH 7.2, 25°C. As for the experimental part: as §2, §1, §4, §5
Where [9] appears, read: PPB 50 mM, pH 7.2, 25°C, time-dependent irreversible inhibition.

Structures are written as SMILES.

As a reminder, the IC50 is the concentration at which inhibition is half-maximal.

T1 sequence (Q6GII7 whole entry): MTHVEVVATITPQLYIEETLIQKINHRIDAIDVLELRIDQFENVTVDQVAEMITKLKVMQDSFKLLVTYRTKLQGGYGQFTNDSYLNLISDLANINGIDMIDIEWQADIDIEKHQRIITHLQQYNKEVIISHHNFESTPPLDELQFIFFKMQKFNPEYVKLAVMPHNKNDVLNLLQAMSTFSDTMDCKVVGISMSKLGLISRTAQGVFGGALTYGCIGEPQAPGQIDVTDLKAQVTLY

Turning to `O=C1C[C@@](O)(C(=O)O)C[C@@H](O)[C@@H]1O` [3-dehydroquinic acid], at Sa-DHQ1 [1], the K m worked out at 18 ± 3 µM and the k cat came out at 255 ± 12 s⁻¹. On St-DHQ1 [2], this compound came in with a K m of 24 ± 3 µM and a k cat of 1.1 ± 0.1 s⁻¹.
Consider `O=C(O)[C@]1(O)C[C@@H](O)[C@@H](O)[C@H](O)C1` [(–)-quinic acid (9), (–)-quinic acid], for which the “covalent adduct formation with the enzyme” value in assay [3] is recorded as “does not form a covalent adduct”.
With `O=C(O)[C@@]1(O)C[C@@H](O)[C@H](O)[C@H](NO)C1` [Compound 6, (1S,3R,4R,5R)-1,3,4-trihydroxy-5-hydroxylaminocyclohexane-1-carboxylic acid], the “additional mass of covalently modified enzyme (MALDI)” value on St-DHQ1 [4] (St-DHQ1, ∼1:120 enzyme/ligand ratio, 24 h, 25°C) turned out to be 158. Further, the type of inhibition entry on Sa-DHQ1 [5] and at St-DHQ1 [6] was “time-dependent irreversible inhibitor” throughout. For the same compound, the k inact at Sa-DHQ1 [5] (PPB 50 mM, pH 7.2, 25°C) came out at 8 ± 1 ms^−1; at St-DHQ1 [6] (PPB 50 mM, pH 7.2, 25°C) it was 13 ± 1 ms^−1. For the same compound, the Ki is 90 ± 8 µM at Sa-DHQ1 [5] (setting [9]) and 130 ± 12 µM on St-DHQ1 [6] (setting [9]).
Turning to `N[C@@H]1C[C@@](O)(C(=O)O)C[C@@H](O)[C@@H]1O` [Compound 7, (1S,3R,4R,5R)-3-amino-1,4,5-trihydroxycyclohexane-1-carboxylic acid], the “covalent modification of enzyme (MALDI)” value on St-DHQ1 [4] is on record as “No modifications”. The type of inhibition entry on Sa-DHQ1 [5] and at St-DHQ1 [6] was “reversible competitive inhibitors” in each case. Also, the IC50 on Sa-DHQ1 [7] was determined as 482 ± 19 µM; at St-DHQ1 [8], 528 ± 33 µM.
With `O=C(O)[C@@]1(O)C[C@@H](O)[C@H](O)[C@@H]2O[C@@H]21` [Compound 8, (1S,2R,4R,5S,6S)-2,4,5-trihydroxy-7-oxabicyclo[4.1.0]heptane-2-carboxylic acid], the “covalent modification of enzyme (MALDI)” value at St-DHQ1 [4] is on record as “No modifications”. Moreover, the type of inhibition entry on Sa-DHQ1 [5] and on St-DHQ1 [6] was “reversible competitive inhibitors” in each case. For the same compound, the IC50 on Sa-DHQ1 [7] and at St-DHQ1 [8] was above 2000 µM throughout.

The values are drawn from paper PMC9902378, “Quinate-based ligands for irreversible inactivation of the bacterial virulence factor DHQ1 enzyme—A molecular insight” (Frontiers in Molecular Biosciences, 2023).
